Measurements as given in US20160193179A1, “Treatment of Cardiovascular Risk in Diabetic Patients” (EVOLVA SA, priority 2012, published 2016).

What was measured:
[1] = Bioavailability (statement); settings: in vivo
[2] = Solubility (statement)
[3] = tested on: human coronary artery smooth muscle cells; test: Human coronary artery smooth muscle cell proliferation (WST-1); type: cell-based
Procedure: Human coronary artery SMC is cultured in SmGM2 kit medium. At 80% confluence, the SMCs are trypsinized and resuspended in either DMEM supplemented with 2% FCS (“low serum media”), or in SmGM2 kit medium containing 5% FCS, 2 ng/ml FGF, 0.5 ng/ml EGF, 5 μg/ml insulin (“growth factor media”). Subsequently, 5000 cells in 200 μL are added to each well in a 96-well plate and left to adhere overnight. Either vehicle or Compound 3 (50 nM, 500 nM, 5 μM) is added to the wells 1 h before U 46619 at different concentrations (0.1 nM to 10 μM) and incubated for another 48 h. All experiments are repeated 3-5 times for each experimental condition.
Cell proliferation is evaluated using WST-1 reagent according to the manufacturer's instructions. In brief, after replacement of phenol red containing media by 200 μL transparent serum-supplemented DMEM, 10 μL of diluted WST-1 reagent is added to each well at the end of the 48 h incubation period. After 1 h incubation at 37° C., the absorbance of the formazan dye formed is measured at 440 nm using a microplate reader.
All results are expressed as mean±SE. Statistically significant differences are determined by a one-way analysis of variances, followed by Holm-Sidak post hoc test, for multiple comparisons, using Sigma Stat software. A P value of less than 0.05 is considered significant.

[4] = tested on: platelet aggregation in PRP of type-2 diabetic patients; test: Platelet aggregation in citrate-anticoagulated PRP, light transmission aggregometry (LTA); type: cell-based, human; settings: for ADP 5 late platelet aggregation (mean ± SD) / ADP 5 max platelet aggregation (mean ± SD): ADP 5 μM; for ADP 5 late platelet aggregation (mean ± SD) / ADP 20 late platelet aggregation (mean ± SD) / U-46619 late platelet aggregation (mean ± SD) / AA late platelet aggregation (mean ± SD) / COLL late platelet aggregation (mean ± SD): late aggregation at 6 minutes; for ADP 5 late platelet aggregation (mean ± SD) / ADP 5 max platelet aggregation (mean ± SD) / ADP 20 late platelet aggregation (mean ± SD) / ADP 20 max platelet aggregation (mean ± SD) / U-46619 late platelet aggregation (mean ± SD) / U-46619 max platelet aggregation (mean ± SD) / AA late platelet aggregation (mean ± SD) / COLL late platelet aggregation (mean ± SD) / COLL max platelet aggregation (mean ± SD): PRP ± 100 nM Compound 3 in vitro; for ADP 5 max platelet aggregation (mean ± SD) / ADP 20 max platelet aggregation (mean ± SD) / U-46619 max platelet aggregation (mean ± SD) / AA max platelet aggregation (mean ± SD) / COLL max platelet aggregation (mean ± SD): maximal aggregation; for ADP 20 late platelet aggregation (mean ± SD) / ADP 20 max platelet aggregation (mean ± SD): ADP 20 μM; for U-46619 late platelet aggregation (mean ± SD) / U-46619 max platelet aggregation (mean ± SD): U-46619 7 uM; for AA late platelet aggregation (mean ± SD) / AA max platelet aggregation (mean ± SD): arachidonic acid 1 mM; for AA max platelet aggregation (mean ± SD): PRP ± 100 nM Compound 3 in vitro 10 min 37°C; for COLL late platelet aggregation (mean ± SD) / COLL max platelet aggregation (mean ± SD): collagen 3 ug/ml
Procedure: Patient population: Ten patients affected by type-2 diabetes mellitus and CAD (coronary artery disease), on chronic daily treatment with 81 mg aspirin (enteric coated acetylsalicylic acid, Cardioaspirin, Bayer, Germany) are switched to clopidogrel (75 mg/day) monotherapy for 7-10 days prior to study. Pharmacodynamic assessments are performed while on aspirin (81 mg) monotherapy and clopidogrel (75 mg) monotherapy.
Blood sampling with 19-gauge needle or larger without the use of tourniquet. The first two ml of blood sampled was discarded. The venous blood samples are drawn into tri-sodium citrate filled tubes (BD Vacutainer 0.109 M. Ref. 363048) for the LTA. All tri-sodium citrate used to anticoagulate a blood sample remains in the plasma phase since it was not taken up by platelets, erythrocytes and leukocytes. Citrate plasma concentration and the resulting free plasma Ca2+ needed for platelet aggregation is directly determined by the individual haematocrit.
Platelet-rich plasma (PRP) is prepared by centrifugation at 120×g for 10 min at room temperature. Autologous platelet-poor plasma (PPP) is prepared by centrifugation at 2300×g for 15 min at room temperature. The PRP platelet count is adjusted to 250.000/ul by the autologous PPP. Stability for the platelet aggregation test is 2 hours at room temperature. Platelet aggregation is performed using LTA [2-5]. Blood is collected in citrated tubes. Citrate concentrations are adjusted according to the individual haematocrit levels according to prior LTA studies using Evolva compound. LTA is assessed using PRP by the turbidimetric method in a 2-channel aggregometer (Chrono-Log 490 Model, Chrono-Log Corp., Havertown) according to the instructions of the manufacturer. Light transmission is adjusted to 0% with the PRP and to 100% for the PPP for each measurement. Curves are recorded for 6 minutes. Platelet aggregation is determined as the maximal percent change in light transmittance from baseline using PPP as a reference as well as late platelet aggregation at 6 minutes. Platelet agonists include U-46619 (7 uM), arachidonic acid (1 mM), collagen (3 ug/ml) and ADP (20 μM and 5 μM). Pharmacodynamic testing is performed following 10 min in vitro incubation at 37° C. of PRP with 100 nM Compound 3 and without 100 nM Compound 3 (placebo).
Total of 10 LTA analysis per patient at each time point; total 2 time points=20 assessments. Table 1 and FIG. 6B compare aspirin vs. aspirin+Compound 3, Table 2 and FIG. 7A compare clopidogrel vs. clopidigrel+Comppound 3, and Table 3 and FIG. 7B compare aspirin+Compound 3 vs. clopidogrel+Comound 3.

| SMILES | bioavailability [1] | solubility [2] | concentration of maximal response (cell number, WST-1) ([3]; growth factor media) | cell number assessed by WST-1 ([3]; growth factor media, U46619 0.1 nM to 10 μM, 48 h) | absorbance vs. vehicle-treated cells (WST-1) ([3]; growth factor media, U46619 at 0.1 μM and higher) | SMC proliferation ([3]; low serum media (2% FCS)) | ADP 5 late platelet aggregation (mean ± SD) [4] | ADP 5 max platelet aggregation (mean ± SD) [4] | ADP 20 late platelet aggregation (mean ± SD) [4] | ADP 20 max platelet aggregation (mean ± SD) [4] | U-46619 late platelet aggregation (mean ± SD) [4] | U-46619 max platelet aggregation (mean ± SD) [4] | AA late platelet aggregation (mean ± SD) [4] | AA max platelet aggregation (mean ± SD) [4] | COLL late platelet aggregation (mean ± SD) [4] | COLL max platelet aggregation (mean ± SD) [4] |
| --- | --- | --- | --- | --- | --- | --- | --- | --- | --- | --- | --- | --- | --- | --- | --- | --- |
| O=C(O)CC/C=C\C[C@@H]1CO[C@H](c2ccccc2Cl)O[C@@H]1c1ccccc1O (single isomer, unassigned) [Compound 2] | poor | poor solubility | – | – | – | – | – | – | – | – | – | – | – | – | – | – |
| CCCCC[C@H](O)/C=C/[C@@H]1[C@@H](C/C=C\CCCC(=O)O)[C@H]2CO[C@@H]1C2 [Compound U46619] | – | – | 1 nM | bell-shaped concentration-dependent increase | does not significantly differ | did not significantly alter | – | – | – | – | – | – | – | – | – | – |
| COC(=O)[C@H](c1ccccc1Cl)N1CCc2sccc2C1 [CLOP, clopidogrel] | – | – | – | – | – | – | 19.7 ± 21.9% | 32.8 ± 17.2% | 44.6 ± 18.9% | 54.8 ± 13.3% | 68.8 ± 13.8% | 71.6 ± 11.6% | 47.6 ± 28.2% | 49.7 ± 28.2% | 70.5 ± 10.5% | 72.6 ± 10.2% |
| CC(=O)Oc1ccccc1C(=O)O [ASA, acetylsalicylic acid] | – | – | – | – | – | – | 46.3 ± 15% | 52.6 ± 12% | 72 ± 6% | 74.3 ± 6% | 74.9 ± 4.6% | 77 ± 5.2% | 8.5 ± 23% | 9.4 ± 22.7% | 59.6 ± 17.2% | 61.4 ± 17.6% |
